In paper PMC8015083 (ACS Omega, 2021):
Values after ≈ are worked out from the molar mass of the structure shown. Values joined by “and” are separate entries in the source; they are usually repeats but may differ in a detail not shown here. Equal entries are not always repeated. Where two headings read alike, the source gives them in different places.

Tests used:
C. neoformans = test: microbe, parasite or virus in culture; assay type: cell-based, Cryptococcus neoformans; details: for MIC80: Cryptococcus neoformans
M. pachydermatis = test: microbe, parasite or virus in culture; assay type: cell-based; details: Malassezia pachydermatis, read-out: MIC80 in M. pachydermatis
C. neoformans KN99 [1] = test: microbe, parasite or virus in culture; assay type: cell-based; details: Cryptococcus neoformans, KN99, 48 h, read-out: C. neo MIC80
[2] = tested on: C. neoformans aox1Δ strain; assay type: cell-based, Cryptococcus neoformans
C. neoformans KN99 [3] = assay type: cell-based, Cryptococcus neoformans
C. neoformans KN99 [4] = assay type: cell-based, Cryptococcus neoformans; remark: listed apart in the source
M. furfur = test: microbe, parasite or virus in culture; assay type: cell-based; details: Malassezia furfur, read-out: MIC80 in M. furfur
[5] = human, in vivo; cited from earlier work

Structure (SMILES): C[C@@H]1[C@H](O)[C@@H](C)/C=C/C=C/C=C/C=C/C=C/C=C/C=C/[C@H](O[C@@H]2O[C@H](C)[C@@H](O)[C@H](N)[C@@H]2O)C[C@@H]2O[C@](O)(C[C@@H](O)C[C@@H](O)[C@H](O)CC[C@@H](O)C[C@@H](O)CC(=O)O[C@H]1C)C[C@H](O)[C@H]2C(=O)O [AMB, amphotericin B]
- MIC80 (C. neoformans; read-out: MIC80 alone, AMB): 1.5 µM (≈ 1.39 µg/mL)

Structure (SMILES): Cc1cc(-c2ccc(S(=O)(=O)O)cc2)c2ccc3c(-c4ccc(S(=O)(=O)O)cc4)cc(C)nc3c2n1 [BCS, bathocuproinedisulfonic acid]
- MIC80 alone, BCS (C. neoformans): >200 µM

Structure (SMILES): Cc1cc(C2CCCCC2)n(O)c(=O)c1 [CPO, Ciclopirox olamine]
- MIC80 (M. pachydermatis): ~25 µM (≈ 5.18 µg/mL)
- MIC (C. neoformans KN99 [1]): 0.87 µM and 0.18 µg/mL
- MIC80 in aox1Δ strain compared with wild type [2]: no difference in sensitivity
- killing of the cells (C. neoformans KN99 [3]): 99.9%
- rescue of inhibition by exogenous copper (C. neoformans KN99 [4]): partially rescued
- rescue of inhibition by exogenous iron (C. neoformans KN99 [4]): fully rescued
- rescue of inhibition by zinc (C. neoformans KN99 [4]): did not rescue
- MIC80 (M. furfur): ~25 µM (≈ 5.18 µg/mL)
- tolerability of oral dosing [5]: well tolerated
- FICI (C. neoformans): 0.75

Structure (SMILES): Cc1c(O)c(=O)ccn1C [DFP, deferiprone]
- MIC80 alone, DFP (C. neoformans): 200 µM (≈ 27.8 µg/mL)
- MIC80 (C. neoformans; read-out: MIC80 alone, DFP): > 200 µM

Structure (SMILES): OC(Cn1cncn1)(Cn1cncn1)c1ccc(F)cc1F [FLC, fluconazole]
- MIC80 (C. neoformans; read-out: MIC80 alone, FLC): 3 µM (≈ 0.919 µg/mL)

Structure (SMILES): O=C(NO)c1ccccc1O [SHAM, salicylhydroxamic acid]
- MIC80 (C. neoformans; read-out: MIC80 alone, SHAM): 2000 µM (≈ 306 µg/mL)

Structure (SMILES): Cc1cc(CC2CCCCC2)n(O)c(=O)c1 [SLU-2321]
- rescue of inhibition by exogenous copper (C. neoformans KN99 [4]): only partially rescued
- rescue of inhibition by exogenous iron (C. neoformans KN99 [4]): fully rescued
- rescue of inhibition by zinc (C. neoformans KN99 [4]): did not rescue
- FICI (C. neoformans): 0.63
- FICI in combination with CPO (C. neoformans): 0.51

Structure (SMILES): Cc1cc(Cc2ccc(Cl)cc2)n(O)c(=O)c1 [SLU-2707]
- rescue of inhibition by exogenous copper (C. neoformans KN99 [4]): did not rescue
- rescue of inhibition by exogenous iron (C. neoformans KN99 [4]): fully rescued
- rescue of inhibition by zinc (C. neoformans KN99 [4]): did not rescue
- FICI (C. neoformans): 0.63
- FICI in combination with CPO (C. neoformans): 0.37

Structure (SMILES): O=C(O)CC(=O)O [malonate]
- MIC80 (C. neoformans; read-out: MIC80 alone, malonate): 25 µM (≈ 2.6 µg/mL)

Structure (SMILES): CO/C(=C/C(N)=O)[C@H](C)[C@H](/C=C/c1csc(-c2csc([C@@H](C)/C=C/C=C/C(C)C)n2)n1)OC [myxothiazol]
- MIC80 alone, myxothiazol (C. neoformans): 5 µM (≈ 2.44 µg/mL)

Structure (SMILES): Cc1ccc2ccc3ccc(C)nc3c2n1 [neocuproine]
- MIC80 (C. neoformans; read-out: MIC80 alone, neocuproine): 0.25 µM (≈ 0.0521 µg/mL)

Structure (SMILES): C=C(C)[C@H]1Cc2c(ccc3c2O[C@@H]2COc4cc(OC)c(OC)cc4[C@@H]2C3=O)O1 [rotenone]
- MIC80 (C. neoformans; read-out: MIC80 alone, rotenone): 15 µM (≈ 5.92 µg/mL)
